Test results published in patent US20120277265A1, “NOVEL POLYQUINOLINE DERIVATIVES AND THE THERAPEUTIC USE THEREOF” (CENTRE NATIONAL DE LA RECHERCHE SCIENTIFIQUE (C.N.R.S.), priority 2005, published 2012).

Tests used:
[1] = UV-visible spectrophotometric titration with CuCl2 (metal/ligand stoichiometry); format: binding; conditions: 15 μM ligand; Tris-HCl buffer pH 7.4/organic solvent, per ligand as in Table 3 column Solvent
Experimental: (§1) An organic solvent (CH3OH, dioxane or DMSO) was added in order to achieve good solubility of the ligands and metal complexes in the concentrations used in these experiments. Exact proportions of the organic solvent/buffer mixture are specified for each UV-visible characterisation of the different ligands or metal complexes.
(§2) Aliquot portions of concentrated CuCl2 or ZnCl2 solutions (M) are added to a 15 μM ligand solution so as to induce only negligible variations in volume. After each addition, changes in absorption spectra are observed immediately and are consistent between two additions, which corresponds to a rapid complexing process. The exact absorption values relating to each ligand and the copper(II) or zinc(II) complexes thereof are detailed hereinafter in the Experimental part (in the Synthesis part for ligands and hereinafter for the metal complexes).
(§3) The stoichiometry of the different ligands (L) for Cu(II) or ZN(II) have therefore been determined spectrophotometrically by metal ion titration. In this example, for an M/L ratio increasing from 0 to 1, π→π* with transition, centred at 251 nm for the free ligand, is shifted to a lower energy with a concomitant appearance of an absorption band in the visible region of the spectrum (λmax to 383 nm), which is probably the result of an MLCT transition. For greater M/L ratios, no additional change in the UV-visible absorption spectra is observed.

[2] = Hydrogen peroxide produced by Aβ1-42 in the presence of CuCl2, ascorbate, air and ligand (Amplex Red H2O2/HRP); format: biochemical; conditions: ligand 1 eq/Cu(II) (0.4 μM); CuCl2 0.4 μM, ascorbate 10 μM, air
Experimental: (§4) FIG. 11: Variation in H2O2 production by copper complexes of Aβ1-42 peptide as a function of the Cu(II)/Aβ stoichiometry. Experiments are carried out for 5 minutes in a sodium phosphate buffer (pH=7.4) in the presence 0.4 μM CuCl2, 10 μM ascorbate and air with or without 0.4 μM of 3 or 7. The H2O2 released is quantified by means of an Amplex-Red H2O2/HRP Assay kit.
(§5) The final concentrations are given. The reactions were carried out in the dark in mM sodium phosphate buffer (pH=7.4). Aβ1-42 (0.2 μM) and CuCl2 (0.4 μM) were pre-incubated for 1 hour at 37° C. while stirring at 1,400 rpm in 375 μl of buffer. Then 2 μl of a solution of ligand to be investigated (0.2; 0.4 or 0.8 μM) in DMSO were added. After incubation for a further hour, 2 μl of an aqueous sodium ascorbate solution (10 μM) were added and incubation was continued for 5 min while stirring. The amount of H2O2 produced is then quantified using an Amplex Red H2O2/HRP Assay Kit (Molecular Probes) while adding a volume of assay reagent to the samples, then incubating them for 1 hour at 37° C. while stirring at 500 rpm. […] Quantification is carried out on the basis of standard curves obtained with known amounts of H2O2.
(§6) The figures in the tables correspond to the amount of H2O2 (expressed in nanomoles) added using an Amplex Red H2O2/HRP Assay kit.

[3] = target: T1, copper complexes of Aβ1-42 peptide (Homo sapiens, UniProt P05067); assay: as above; format: biochemical; conditions: for amount of H2O2, 0.2 μM Aβ1-42 Cu/Aβ = 2 / amount of H2O2, 0.5 μM Aβ1-42 Cu/Aβ = 0.75: ligand 1 eq/Cu(II) (0.4 μM), CuCl2 0.4 μM, ascorbate 10 μM, air
T1 construct: The β-amyloid peptide Aβ1-42 (Aβ1-42) was synthesised, purified (to a purity greater than 95%); made in house; host or cells: chemical peptide synthesis (no expression host)
T1 sequence (P05067 672-713 limits assumed, one chain of several): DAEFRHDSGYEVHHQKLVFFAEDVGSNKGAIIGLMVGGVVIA
Experimental: as §4, §5, §6

Aβ1-42 = target: T2, Aβ1-42 (Homo sapiens, UniProt P05067); assay: Inhibition of the precipitation of Aβ1-42 by the addition of ligand (Micro BCA assay of soluble/aggregated peptide); format: biochemical; conditions: Aβ1-42 5 μM, pH 7.4; for CuCl2 % soluble Aβ: 20 μM CuCl2, 1 h 37° C. then 1 h with 200 μM ligand; for FeCl3 % soluble Aβ: 20 μM FeCl3, 1 h 37° C. then 1 h with 200 μM ligand; for ZnCl2 % soluble Aβ: 20 μM ZnCl2, 1 h 37° C. then 1 h with 200 μM ligand; for without metal % soluble Aβ: no metal salt, 1 h 37° C. then 1 h with 200 μM ligand
T2 construct: The β-amyloid peptide Aβ1-42 (Aβ1-42) was synthesised, purified (to a purity greater than 95%); made in house; host or cells: chemical peptide synthesis (no expression host)
T2 sequence (P05067 672-713): as the sequence (P05067 672-713 limits assumed, one chain of several) above
Experimental: After a further hour of incubation, the reaction mixture is centrifuged.
Before use, the water [of Milli-Q Millipore quality] and all buffer solutions were treated on Chelex-100 resin (Biorad) (5 mg/ml) and filtered through 0.2 μm filters (Whatman) to remove potential traces of metal ions or particles.
Working solutions of the peptide were prepared by solubilising 1 mg of lyophilised peptide in 500 μl of water and 500 μl of an aqueous NaOH solution pH=12.0, while stirring in a Thermomixer Comfort (Eppendorf). The peptide preparations are subsequently centrifuged for 10 minutes at 9,000 rpm and the supernatant is used as an “Aβ stock” solution. The concentration of peptide in the “Aβ stock” is determined immediately by colorimetric assay using a Micro BCA Protein Assays kit (Pierce) from standard ranges produced using known amounts of bovine serum albumin (BSA) then the Aβ1-42 peptide solution is aliquoted and frozen rapidly in liquid nitrogen prior to being stored at −20° C. until being used.
Salts are generated by adding one hydrochloric acid equivalent per nitrogen group equivalent of the ligand dissolved in DMSO. After evaporation of the solvent, these salts are dissolved at the desired concentration with DMSO and kept at −20° C. until they are used.
The protocol was established from works by: C. S. Atwood et al., J. Neurochem. […] The final concentrations are given. 500 μl of Aβ1-42 (5 μM is set to aggregate in 20 mM Tris-HCl buffer containing 150 mM NaCl (pH=7.4) for 1 hour at 37° C. while stirring at 1,400 rpm in the absence or presence of metal ions: CuCl2, ZnCl2 or FeCl3 (20 μM). Then 50 pi of ligand to be tested (200 μM) dissolved in DMSO are added and the samples are incubated for 1 further hour at 37° C. while stirring at 1,400 rpm. The samples without ligand also receive 50 μl of DMSO. The samples (final volume=550 μ) are subsequently centrifuged for 20 min at 9,000 rpm, and 500 μl of supernatant are removed. The tube containing the precipitation pellet then receives 450 μl of assay buffer/DMSO mixture (91/9, v/v). […] Quantification is carried out on the basis of standard BSA ranges. The amounts of Aβ1-42 actually contained in the pellet and the supernatant are obtained after a correction due to the presence of a residual portion of supernatant in the pellet-containing fraction.
For the control experiments with derivatives comprising a single quinoline residue, […] of ligand were added because complexes of type L2Cu are conventionally used in these cases.

[4] = Competition reaction between ligand (Ls), CuCl2 and competing chelator (Lc), UV-visible; affinity constants
Experimental: An organic solvent (CH3OH, dioxane or DMSO) was added in order to achieve good solubility of all the ligands and metal complexes in the concentrations used in these experiments. Monitoring has shown that all the ligands and metal complexes examined yield results corresponding to the Beer-Lambert Law in the experimental conditions used.
Lc competing chelators were selected to provide a range of stability constants for the metal ion M presenting intervals of approximately one or two log units, as well as to make it possible for each competition experiment to quantify one of the Ls, MLs, Lcc or MLc species with a UV-vis spectrum wavelength without contaminating the three other species (FIG. 7). […] As the concentration [MLs]=x % of C is measured on the UV-visible spectra, the concentrations [Ls]=(1−x) % of C, [MLc]=(1−x) % of C and [Lc]=x % of C can be deduced therefrom and:

[5] = Determination of log D7.4 (1-octanol / Tris-HCl buffer); format: physicochemical; conditions: 1-octanol / 20 mM Tris-HCl buffer containing 150 mM NaCl (pH = 7.4) (1/1, v/v)
Experimental: The ligand (2.0 mg) is dissolved in 2 ml of 1-octanol then 2 ml of 20 mM Tris-HCl buffer, pH=7.4 containing 150 mM NaCl are added. After mixing in a vortex for 3 min at ambient temperature, followed by centrifugation for 5 min at 9,000 rpm, the concentration of the ligand in each phase is determined by UV-visible spectrophotometry. The 1-octanol fractions are thus redivided until reproducible values of coefficient of division of obtained. This coefficient is expressed as the decimal logarithm of [(the concentration of ligand contained in the 1-octanol phase)/(the concentration of ligand contained in the buffered aqueous phase)]=log D7.4. Measurements were taken three times.

[6] = UV-visible spectrophotometric titration with ZnCl2 (metal/ligand stoichiometry); format: binding; conditions: 15 μM ligand; Tris-HCl buffer pH 7.4/organic solvent, per ligand as in Table 3 column Solvent
Experimental: as §1, §2, §3

[7] = Competition reaction between ligand (Ls), ZnCl2 and competing chelator (Lc), UV-visible; affinity constants; format: binding; conditions: Ls/ZnCl2/Lc 1/1/1 at 15 μM; solvent per ligand as in Table 3
Experimental: An organic solvent (CH3OH, dioxane or DMSO) was added in order to achieve good solubility of all the ligands and metal complexes in the concentrations used in these experiments.
As the concentration [MLs]=x % of C is measured on the UV-visible spectra, the concentrations [Ls]=(1−x) % of C, [MLc]=(1−x) % of C and [Lc]=x % of C can be deduced therefrom and:
In these conditions, [MLs]=[MLc]; [MLs]+[Lc]=Y, y≧50 and:
When log Ks 6, these equations are not used since the percentages of metal ion which is free in the solution or chelated by the solvent or the buffer are not negligible.

[8] = Ls/CuCl2/Lc 1/1/1 at 15 μM, solvent per ligand as in Table 3

Compound	Complex observed by titration with Cu^II (observed L/Cu(II) stoichiometry) [1]	amount of H2O2, without Aβ1-42 [2] [nmol]	amount of H2O2, 0.2 μM Aβ1-42 Cu/Aβ = 2 [3] [nmol]	amount of H2O2, 0.5 μM Aβ1-42 Cu/Aβ = 0.75 [3] [nmol]	CuCl2 % soluble Aβ (Aβ1-42) [%]	FeCl3 % soluble Aβ (Aβ1-42) [%]	ZnCl2 % soluble Aβ (Aβ1-42) [%]	without metal % soluble Aβ (Aβ1-42) [%]	percentage of the CuLs species at equilibrium, competing ligand EDTA [4, 8] [%]	logD at 3 min [5]	Complex observed by titration with Zn^II (observed L/Zn(II) stoichiometry) [6]	H2O2 production as a function of the Cu/Aβ1-42 ratio ([3]; FIG. 11, 1 equivalent of ligand per Cu(II) (0.4 μM), Aβ1-42 0.2 to 0.53 μM)	percentage of ZnLs species at equilibrium, competing ligand EDTA [7] [%]	number of Lc equivalents making it possible to form 50% of CuLs, Lc = EDTA ([4]; mixture of Ls (15 μM, 1 equivalent) and CuCl2 (1/1, mol/mol)) [eq]	percentage of the CuLs species at equilibrium, competing ligand EDDA [4, 8] [%]
CCCCN(c1ccc2cccc(N)c2n1)c1ccc2cccc(N)c2n1 [Compound 23, N-butyl-2,2′-imino-bis(8-quinolineamine)]	LCu^II(1/1)	0.65	0.69	0.49	60 ± 4	62	58 ± 4	73	30	2.5 ± 0.1	–	–	–	–	–
Oc1cccc2ccc(CCc3ccc4cccc(O)c4n3)nc12 [Compound 7, 2,2′-(1,2-Ethanediyl)-bis(8-hydroxyquinoline)]	LCu^II(1/1)	0.75	0.89 ± 0.07	0.68	35	40	60	59	55	3.5 ± 0.1	LZn^II(1/1)	virtually inhibit H2O2 production	55	1.1	–
COc1ccc2ccc(CCc3ccc4ccc(OC)c(O)c4n3)nc2c1O [Compound 17, 2,2′-(1,2-ethanediyl)-bis[7-(methyloxy)-8-quinolinol]]	LCu^II(1/1)	–	0.69	–	38 ± 4	38	42 ± 4	63 ± 3	55	3.5 ± 0.1	LZn^II(1/1)	–	35	–	–
c1cnc2c(NCCCNc3cccc4cccnc34)cccc2c1 [Compound 13, N,N′-di-8-quinolinyl-1,3-propanediamine]	LCu^II(1/1)	0.89	2.10	0.70	55 ± 3	66	57	71 ± 2	25	2.7 ± 0.1	–	–	–	–	65
Oc1cccc2ccc(CCCCc3ccc4cccc(O)c4n3)nc12 [Compound 10, 2,2′-(1,4-Butanediyl)-bis(8-hydroxyquinoline)]	LCu^II(1/1)	–	–	–	42	43	43	52	45	3.8 ± 0.1	LZn^II(1/1)	–	45	–	–
